In US5487899A, “Wound healing” (Jess Clarke & Sons, Inc., priority 1994, dated 1996):

Legend:
[1] = tested on: croton oil-induced ear swelling; assay: croton oil-induced ear swelling (Example 4); assay type: in vivo, ICR-HSD mice; details: Aspirin 100 μg, topical, 6 h
Experimental: Four groups (10 mice per group) of adult male ICR-HSD mice was given topically 25 μg/per 10 μl croton oil solutions. This irritant was applied to the inner surface of the animal's right ear, and the left ear was not treated and used as a control. One-half hour after the application of the croton oil irritant, solutions were added topically to reduce inflammation; the solutions were 1% aspirin, 2% Aloe and a solution that had both aspirin and aloe.
Six hours after the topical application of croton oil solutions, a 6 mm biopsy punch specimen was taken from each ear, weighed, and the weight differences between the two were compared to determine the amount of inflammation remaining on the right ear.

open wounds = assay: Open wound healing assay (Example 5); assay type: in vivo, ICR mice; details: daily subcutaneous, Saline control 60.0 ± 8.3
Experimental: Adult male ICR mice (30 g, 15 animals/group) were anesthetized with ether and shaved on both sides of the back. A sterile 6 mm Baker biopsy punch was used to induce a wound on each side of the vertebral column. Anterior-posterior wound diameter measurements were made using a vernier caliper on days 0, 4 and 7. Three treatment groups received daily subcutaneous injections of a gibberellic acid (GA3) solution at dosages of 2, 10 and 100 mg/Kg, respectively. Control mice received daily injections of saline on a 10 ml/Kg basis. Standard errors for each mean value was calculated. The student's "t" test was used to determine significant differences between treatment and control groups. An analysis of variance (ANOVA) was also calculated to determine the statistical significance of the study as a whole, and gave a Fisher ratio at 16.48 which is significant at p<0.001.

wound = assay: Wound tensile strength assay (Example 6); assay type: in vivo,  mice; details: 50 mg/kg (each) × 4, subcutaneous, 6 h after day 4 injection
Experimental: While tensile strength of wounds is measured in terms of the load applied per unit of cross section area, the breaking strength is the measure of force required to break a wound of tissue without regard to dimensions. While tensile strength is not a function of the incision length, breaking strength is. The measurements of force required to pull a wound apart differ chiefly in the manner in which the force is applied and the sophistication of the force measurement. In the data recorded herein and in the data collected in the making of the present invention, we used a conventional plastic syringe calibrated to measure […] of air injected into the peritoneal cavity of the mouse. […] Elastic bands are first placed on over the shoulders and hips of the animal to contain the injected air into a defined area of the body and to reduce error involving underlying tissue of the peritoneal cavity, and air is injected into the animal until the wound is disrupted at which time the volume of air is recorded. […]
Each wound was closed with a 9 mm wound clip at 0.25-inch spacings for a total of 3 clips per wound. […] Six hours after the day 4 injection, the tensile strength of wounds was measured by injecting air into the peritoneal cavity from a syringe as described above.

Structure (SMILES)	Inhibition (%) of croton oil-induced ear swelling [1]	decrease (%) in wound diameter (open wounds; 2 mg/kg)	decrease (%) in wound diameter (open wounds; 10 mg/kg)	decrease (%) in wound diameter (open wounds; 100 mg/kg)	increase (%) in wound tensile strength (wound)
CC(=O)Oc1ccccc1C(=O)O [Aspirin]	23.7 ± 3.1%				
C=C1C[C@]23C[C@@]1(O)CC[C@H]2[C@@]12C=C[C@H](O)[C@@](C)(C(=O)O1)[C@H]2[C@@H]3C(=O)O [Gibberellin, gibberellic acid]		65.3 ± 11.3%	71.6 ± 12.1%	81.7 ± 7.0%	36.1 ± 1.5%
